Counter-ions that a name gives are not always drawn.
Target: T1, σ1-receptor (Cavia porcellus, UniProt Q60492)
T1 construct: Guinea pig brains were homogenized in 10 vols; (w/v) of Tris-HCl 50 mM 0.32 M sucrose; from tissue; host or cells: guinea pig brain membranes
Assay: σ1-receptor binding assay, [3H]-(+)-pentazocine, guinea pig brain membranes
Settings: radioligand [3H]-(+)-pentazocine at 5.0 nM; guinea pig brain membrane; 150 min at 37° C.; nonspecific binding with 1 μM haloperidol
Procedure: Brain membrane preparation and binding assays for the σ1-receptor were performed as described (DeHaven-Hudkins, D. L., L. C. Fleissner, and F. Y. Ford-Rice, 1992, Characterization of the binding of [^3H](+)pentazocine to σ recognition sites in guinea pig brain, Eur. J. Pharmacol. 227, 371-378) with some modifications. Guinea pig brains were homogenized in 10 vols. (w/v) of Tris-HCl 50 mM 0.32 M sucrose, pH 7.4, with a Kinematica Polytron PT 3000 at 15000 r.p.m. for 30 s. The homogenate was centrifuged at 1000 g for 10 min at 4° C. and the supernatants collected and centrifuged again at 48000 g for 15 min at 4° C. The pellet was resuspended in 10 volumes of Tris-HCl buffer (50 mM, pH 7.4), incubated at 37° C. for 30 min, and centrifuged at 48000 g for 20 min at 4° C. Following this, the pellet was re-suspended in fresh Tris-HCl buffer (50 mM, pH 7.4) and stored on ice until use.
The radioligand used was [^3H]-(+)-pentazocine at 5.0 nM and the final volume was 200 μl. The incubation was initiated with the addition of 100 μl of membrane at a final tissue concentration of approximately 5 mg tissue net weight/mL and the incubation time was 150 m. at 37° C. After incubation, the membranes were collected onto pretreated glass fiber filterplate (MultiScreen-FC, Millipore), with polyethylenimine 0.1%. The filters were washed two times with 200 μl of washing buffer (50 mM Tris Cl, pH=7.4) and then 25 μl of Ecoscint H liquid scintillation cocktail were added. Microplates were allowed to set for several hours and then quantified by liquid scintillation spectrophotometry (1450 Microbeta, Wallac). Nonspecific binding was determined with 1 μM haloperidol.

T1 sequence (Q60492 whole entry): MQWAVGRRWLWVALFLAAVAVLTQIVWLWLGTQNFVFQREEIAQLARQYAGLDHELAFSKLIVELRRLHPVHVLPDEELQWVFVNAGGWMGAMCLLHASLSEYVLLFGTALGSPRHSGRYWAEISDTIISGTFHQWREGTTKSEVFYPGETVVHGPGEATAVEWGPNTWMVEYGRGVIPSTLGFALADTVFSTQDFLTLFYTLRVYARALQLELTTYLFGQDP

Row | Structure (SMILES) | Ki [nM]
1 | CCN1CCN(CCCCOc2cc3n(n2)CCCC3)CC1 [Example 98, 2-(4-(4-ethylpiperazin-1-yl)butoxy)-4,5,6,7-tetrahydropyrazolo[1,5-a]pyridine maleate] | 138
2 | c1ccn2nc(OCCCCN3CCN(C4CCCCC4)CC3)cc2c1 [Example 29, 2-(4-(4-cyclohexylpiperazin-1-yl)butoxy)pyrazolo[1,5-a]pyridine dimaleate] | 11.3
3 | CC(C)(C)C1CCN(CCCCOc2cc3ccccn3n2)CC1 [Example 30, 2-(4-(4-tert-butylpiperidin-1-yl)butoxy)pyrazolo[1,5-a]pyridine hydrochloride] | 6.2
4 | c1c(OCCN2CCN(C3CCCCC3)CC2)nn2c1CCCC2 [Example 71, 2-(2-(4-cyclohexylpiperazin-1-yl)ethoxy)-4,5,6,7-tetrahydropyrazolo[1,5-a]pyridine maleate] | 39.3
5 | c1ccn2nc(OCCCCNC34CC5CC(CC(C5)C3)C4)cc2c1 [Example 37, N-adamantyl-4-(pyrazolo[1,5-a]pyridin-2-yloxy)-butan-1-amine maleate] | 14.2
6 | c1c(OCCCCN2CCCC2)nn2c1CCCC2 [Example 59, 2-(4-(pyrrolidin-1-yl)butoxy)-4,5,6,7-tetrahydropyrazolo[1,5-a]pyridine oxalate] | 167
7 | c1ccn2nc(OCCCCN3CCCCCC3)cc2c1 [Example 49, 2-(4-(azepan-1-yl)butoxy)pyrazolo[1,5-a]pyridine maleate] | 7
8 | c1ccc2c(c1)COC21CCN(CCOc2cc3n(n2)CCCC3)CC1 [Example 74, 1′-(2-(4,5,6,7-tetrahydropyrazolo[1,5-a]pyridin-2-yloxy)ethyl)-3H-spiro[isobenzofuran-1,4′-piperidine]maleate] | 30.6
9 | c1ccn2nc(OCCCCN3CCCC3)cc2c1 [Example 20, 2-(4-(pyrrolidin-1-yl)butoxy)pyrazolo[1,5-a]pyridine oxalate] | 50.7
10 | c1ccn2nc(OCCCCN3CC[C@H]4CCCC[C@@H]4C3)cc2c1 [Example 51, (4aR,8aS)-2-(4-(pyrazolo[1,5-a]pyridin-2-yloxy)butyl)decahydroisoquinoline maleate] | 8.3
11 | c1ccc(C2CCN(CCCCOc3cc4n(n3)CCCC4)CC2)cc1 [Example 63, 2-(4-(4-phenylpiperidin-1-yl)butoxy)-4,5,6,7-tetrahydropyrazolo[1,5-a]pyridine oxalate] | 9.2
12 | c1c(OCCCCN2CCCCC2)nn2c1CCCC2 [Example 60, 2-(4-(piperidin-1-yl)butoxy)-4,5,6,7-tetrahydropyrazolo[1,5-a]pyridine oxalate] | 40.7
13 | c1ccn2nc(OCCCCN3CCN(C4CCCCC4)CC3)cc2c1 [Example 28, 2-(4-(4-cyclohexylpiperazin-1-yl)butoxy)pyrazolo[1,5-a]pyridine] | 19.9
14 | CC(C)(C)C1CCN(CCCCOc2cc3n(n2)CCCC3)CC1 [Example 65, 2-(4-(4-tert-butylpiperidin-1-yl)butoxy)-4,5,6,7-tetrahydropyrazolo[1,5-a]pyridine maleate] | 8.3
15 | c1ccn2nc(COCCCCN3CCCCCC3)cc2c1 [Example 8, 2-((4-(azepan-1-yl)butoxy)methyl)pyrazolo[1,5-a]pyridine maleate] | 22.2
16 | CN(CCOc1nn2ccccc2c1I)Cc1ccccc1 [Example 106, N-benzyl-2-(3-iodopyrazolo[1,5-a]pyridin-2-yloxy)-N-methylethanamine oxalate] | 5.8
17 | c1ccn2nc(OCCCCN3CCCCC3)cc2c1 [Example 18, 2-(4-(piperidin-1-yl)butoxy)pyrazolo[1,5-a]pyridine oxalate] | 14.7
18 | c1ccc2c(c1)COC21CCN(CCCCOc2cc3n(n2)CCCC3)CC1 [Example 70, 1′-(4-(4,5,6,7-tetrahydropyrazolo[1,5-a]pyridin-2-yloxy)butyl)-3H-spiro[isobenzofuran-1,4′-piperidine]maleate] | 21.6
19 | c1ccn2nc(COCCCCNC34CC5CC(CC(C5)C3)C4)cc2c1 [Example 5, N-adamantyl-4-(pyrazolo[1,5-a]pyridin-2-ylmethylpyrazolo[1,5-a]pyridin-2-ylmethoxy)butan-1-amine maleate] | 42.3
20 | c1c(OCCCCN2CCCCC2)nn2c1CCCC2 [Example 61, 2-(4-(piperidin-1-yl)butoxy)-4,5,6,7-tetrahydropyrazolo[1,5-a]pyridine maleate] | 28.5
21 | CN(CCOc1cc2ccccn2n1)Cc1ccccc1 [Example 24, N-benzyl-N-methyl-2-(pyrazolo[1,5-a]pyridin-2-yloxy)ethanamine oxalate] | 4.5
22 | c1ccn2nc(OCCCCNC3CCCCC3)cc2c1 [Example 50, N-(4-(pyrazolo[1,5-a]pyridin-2-yloxy)butyl)cyclohexanamine maleate] | 9.7
23 | c1c(OCCCCN2CCCOCC2)nn2c1CCCC2 [Example 89, 4-(4-(4,5,6,7-tetrahydropyrazolo[1,5-a]pyridin-2-yloxy)butyl)-1,4-oxazepane maleate] | 10.1

Next, values leading:

Row | Ki [nM] | Structure (SMILES)
24 | 90.1 | CCCN(CCCCOCc1cc2ccccn2n1)CC1CC1 [Example 3, N-(cyclopropylmethyl)-N-propyl-4-(pyrazolo[1,5-a]pyridin-2-ylmethylpyrazolo[1,5-a]pyridin-2-ylmethoxy)butan-1-amine maleate]
25 | 48.1 | c1c(OCCCN2CCCOCC2)nn2c1CCCC2 [Example 101, 4-(3-(4,5,6,7-tetrahydropyrazolo[1,5-a]pyridin-2-yloxy)propyl)-1,4-oxazepane]
26 | 5.5 | CC(C)(C)C1CCN(CCOc2cc3n(n2)CCCC3)CC1 [Example 66, 2-(2-(4-tert-butylpiperidin-1-yl)ethoxy)-4,5,6,7-tetrahydropyrazolo[1,5-a]pyridine maleate]
27 | 28.1 | CCCN(CCOc1cc2ccccn2n1)CC1CC1 [Example 43, N-(cyclopropylmethyl)-N-(2-(pyrazolo[1,5-a]pyridin-2-yloxy)ethyl)propan-1-amine maleate]
28 | 15.7 | c1ccc2c(c1)CCN(CCCCOc1cc3n(n1)CCCC3)C2 [Example 84, 2-(4-(4,5,6,7-tetrahydropyrazolo[1,5-a]pyridin-2-yloxy)butyl)-1,2,3,4-tetrahydroisoquinoline maleate]
29 | 14.7 | CN(CCOc1cc2ccccn2n1)C1CCN(Cc2ccccc2)CC1 [Example 41, 1-benzyl-N-methyl-N-(2-(pyrazolo[1,5-a]pyridin-2-yloxy)ethyl)piperidin-4-amine dimaleate]
30 | 34.8 | c1c(OCCCCNC23CC4CC(CC(C4)C2)C3)nn2c1CCCC2 [Example 83, N-adamantyl-4-(4,5,6,7-tetrahydropyrazolo[1,5-a]pyridin-2-yloxy)butan-1-amine maleate]
31 | 20 | c1ccc2c(c1)CCN(CCCCOc1cc3ccccn3n1)C2 [Example 36, 2-(4-(pyrazolo[1,5-a]pyridin-2-yloxy)butyl)-1,2,3,4-tetrahydroisoquinoline maleate]
32 | 48 | c1ccc2c(c1)CCN(CCCCOCc1cc3ccccn3n1)C2 [Example 4, maleate]
33 | 19.5 | CN(CCCCOc1cc2ccccn2n1)C1CCN(Cc2ccccc2)CC1 [Example 12, 1-benzyl-N-methyl-N-(4-(pyrazolo[1,5-a]pyridin-2-yloxy)butyl)piperidin-4-amine difumarate]
34 | 3.3 | c1c(OCCN2CC[C@H]3CCCC[C@@H]3C2)nn2c1CCCC2 [Example 87, (4aR,8aS)-2-(2-(4,5,6,7-tetrahydropyrazolo[1,5-a]pyridin-2-yloxy)ethyl)decahydroisoquinoline maleate]
35 | 14.1 | c1ccn2nc(OCCN3CCN(C4CCCCC4)CC3)cc2c1 [Example 47, 2-(2-(4-cyclohexylpiperazin-1-yl)ethoxy)pyrazolo[1,5-a]pyridine dimaleate]
36 | 41.1 | CN(CCOc1cc2ccccn2n1)CCc1ccccc1 [Example 40, N-methyl-N-phenethyl-2-(pyrazolo[1,5-a]pyridin-2-yloxy)ethanamine maleate]
37 | 25 | CCCN(CCCCOc1cc2n(n1)CCCC2)CC1CC1 [Example 80, N-(cyclopropylmethyl)-N-propyl-4-(4,5,6,7-tetrahydropyrazolo[1,5-a]pyridin-2-yloxy)butan-1-amine maleate]
38 | 28.5 | CCCN(CCOc1cc2n(n1)CCCC2)CC1CC1 [Example 90, N-(cyclopropylmethyl)-N-(2-(4,5,6,7-tetrahydropyrazolo[1,5-a]pyridin-2-yloxy)ethyl)propan-1-amine maleate]
39 | 8.4 | c1c(OCCCCN2CCSCC2)nn2c1CCCC2 [Example 86, 4-(4-(4,5,6,7-tetrahydropyrazolo[1,5-a]pyridin-2-yloxy)butyl)thiomorpholine maleate]
40 | 2.95 | CN(CCOc1nn2c(c1I)CCCC2)Cc1ccccc1 [Example 107, N-benzyl-2-(3-iodo-4,5,6,7-tetrahydropyrazolo[1,5-a]pyridin-2-yloxy)-N-methylethanamine oxalate]

Reference: patent US9487513B2, “Substituted pyrazolo[1,5-A]pyridines, their preparation and use as medicaments” (LABORATORIOS DEL DR. ESTEVE S.A., priority 2012, dated 2016)
